The values below come from patent US20110212908A1, “TOPICAL COMPOSITIONS AND THE USE THEREOF” (priority 2005, published 2011).

Structures are written as SMILES.

The test system of the experiment is Pseudomonas. As to the kind of experiment: Inhibition of adhesion of Pseudomonas strains P1, P2, P3 on canine corneocytes. The settings on record: monosaccharides at 0.05% and 0.1% in PBS, vs positive control without monosaccharides (100%). It is filed as cell-based. Here is the method: A study comparing the inhibition, by monosaccharides, of the adhesion of three different strains of Pseudomonas, P1, P2, P3, was conducted on canine corneocytes. The three monosaccharides studied are respectively D-galactose, D-mannose and L-rhamnose.
The three strains of Psedomonas were taken from dogs with infectious otitis. Corneocytes were taken from six different healthy dogs using D-squame™-brand adhesive pads, sold by the CuDerm™ Company.
Bacterial suspensions were produced, each containing one of the three strains P1, P2 or P3, and PBS (phosphate-buffered saline) with or without monosaccharides at two concentrations (0.05% and 0.1%). These suspensions were each placed on a corneocyte layer. These layers were then incubated in a humidity chamber. After incubation, the corneocytes were washed and stained. The adherent Pseudomonas were then quantified by computer-assisted image analysis.
The percentage of adherence of the strains in the presence of monosaccharides was then calculated with respect to the percentage of adherence of the strains without monosaccharides (positive control).
The adherence percentages were compared for the three strains P1 to P3 with respect to the positive control (100%).
With `O=C[C@H](O)[C@@H](O)[C@@H](O)[C@H](O)CO` [D-galactose], the “mean inhibition percentage for the three Pseudomonas strains” value (from here on “mean inhibition percentage”) was 25.6%.

`O=C[C@@H](O)[C@@H](O)[C@H](O)[C@H](O)CO` [D-mannose]: the “mean inhibition percentage” value is recorded as 19.4%.

With `C[C@H](O)[C@H](O)[C@@H](O)[C@@H](O)C=O` [L-rhamnose], the “mean inhibition percentage” value is 30.8%.
